The text below walks through data of BindingDB's records for doi:10.1016/j.bioorg.2016.02.004 (Universiti Teknologi Mara (Uitm), Puncak Alam Campus, 2016).

The structures appear in SMILES notation.

This assay has as its target Alpha-glucosidase MAL12 (Saccharomyces cerevisiae (strain ATCC 204508 / S288c), UniProt P53341). Nature of the assay: Assay for α-Glucosidase Inhibitory Activity. Here is the method: The 135 µL of 50 mM phosphate saline buffer pH (6.8), solution of enzyme (20 µL), and 20 µL of test sample with 70% DMSO was added to 96-well plate. The samples were incubated for 15 min. Pre-read of the plate was taken after incubation using SpectraMax. substrate (pNPG) (25 µL) was added before final reading was takenat 400 nm on Spectra Max.

Chain of Alpha-glucosidase MAL12 (P53341 whole entry): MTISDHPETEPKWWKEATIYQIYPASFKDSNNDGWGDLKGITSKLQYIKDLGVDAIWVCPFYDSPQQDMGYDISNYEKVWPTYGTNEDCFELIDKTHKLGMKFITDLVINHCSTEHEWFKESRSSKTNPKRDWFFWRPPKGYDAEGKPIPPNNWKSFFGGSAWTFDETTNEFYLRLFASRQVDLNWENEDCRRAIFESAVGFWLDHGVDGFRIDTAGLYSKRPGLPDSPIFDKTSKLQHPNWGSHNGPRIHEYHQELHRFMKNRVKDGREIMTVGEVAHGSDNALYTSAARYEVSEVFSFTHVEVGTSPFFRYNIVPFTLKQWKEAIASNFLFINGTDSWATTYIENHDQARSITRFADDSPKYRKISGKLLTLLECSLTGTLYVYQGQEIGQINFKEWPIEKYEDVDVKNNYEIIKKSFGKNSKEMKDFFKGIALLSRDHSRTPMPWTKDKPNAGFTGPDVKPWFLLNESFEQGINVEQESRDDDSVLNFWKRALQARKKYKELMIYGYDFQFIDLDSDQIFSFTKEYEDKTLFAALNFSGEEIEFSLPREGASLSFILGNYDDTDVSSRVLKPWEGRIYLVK

Usually IC50 stands for the concentration at which inhibition is half-maximal. Low readings indicate higher potency, high ones lower potency. In the case of `Cc1cccc2nc(-c3cccc(O)c3O)[nH]c12` [2-(2',3'-Dihydroxyphenyl)-7-methyl-1H-benzo[d]imidazole (15)], the IC50 amounted to 85.6 µM.

Take `Cc1cccc2nc(-c3ccc(O)cc3O)[nH]c12` [2-(2',4'-Dihydroxyphenyl)-7-methyl-1H-benzo[d]imidazole (2)]: half-maximal inhibition (IC50) was put at 60.9 µM.

`Cc1cccc2nc(-c3ccccc3Cl)[nH]c12` [2-(2'-Chlorophenyl)-7-methyl-1H-benzo[d]imidazole (25)] showed an IC50 of 5.3 µM.

The compound `Cc1cccc2nc(-c3ccccc3F)[nH]c12` [2-(2'-Fluorophenyl)-7-methyl-1H-benzo[d]imidazole (8)] gave an IC50 of 34.4 µM.

The compound `COc1ccc(-c2nc3cccc(C)c3[nH]2)c(O)c1` [2-(2'-Hydroxy-4'-methoxyphenyl)-7-methyl-1H-benzo[d]imidazole (20)] yielded a half-maximal inhibitory concentration (IC50) of 29.8 µM.

Compound `COc1ccc(O)c(-c2nc3cccc(C)c3[nH]2)c1` [2-(2'-Hydroxy-5'-methoxyphenyl)-7-methyl-1H-benzo[d]imidazole (14)] had an IC50 of 45.2 µM.

`Cc1cccc2nc(-c3ccccc3O)[nH]c12` [2-(2'-Hydroxyphenyl)-7-methyl-1H-benzo[d]imidazole (19)] registered an IC50 of 16.1 µM.

Turning to `Cc1cccc2nc(-c3ccccc3[N+](=O)[O-])[nH]c12` [2-(2'-Nitrophenyl)-7-methyl-1H-benzo[d]imidazole (7)], the half-maximal inhibitory concentration (IC50) was found to be 44.6 µM. This IC50 lies about 2.8-fold higher than the previous one.

`Cc1cccc2nc(-c3ccc(O)c(O)c3)[nH]c12` [2-(3',4'-Dihydroxyphenyl)-7-methyl-1H-benzo[d]imidazole (10)] gave a half-inhibitory concentration (IC50) of 25.4 µM. Compared with the last compound, the IC50 is about 1.8-fold lower.

As for `Cc1cccc2nc(-c3cccc(F)c3)[nH]c12` [2-(3'-Fluorophenyl)-7-methyl-1H-benzo[d]imidazole (9)], the IC50 was 165 µM.

In turn, `COc1ccc(-c2nc3cccc(C)c3[nH]2)cc1O` [2-(3'-Hydroxy-4'-methoxyphenyl)-7-methyl-1H-benzo[d]imidazole (21)] had a concentration for half-maximal inhibition (IC50) of 226 µM.

Compound `Cc1cccc2nc(-c3cccc(O)c3)[nH]c12` [2-(3'-Hydroxyphenyl)-7-methyl-1H-benzo[d]imidazole (18)] displayed an IC50 of 326 µM.

Regarding `Cc1cccc2nc(-c3ccc(Cl)cc3)[nH]c12` [2-(4'-Chlorophenyl)-7-methyl-1H-benzo[d]imidazole (27)], it took 145 µM to reach half-maximal inhibition (IC50).

`Cc1cccc2nc(-c3ccc(F)cc3)[nH]c12` [2-(4'-Fluorophenyl)-7-methyl-1H-benzo[d]imidazole (16)]: the IC50 is 136 µM.

Consider `Cc1cccc2nc(-c3ccc(O)cc3)[nH]c12` [2-(4'-Hydroxyphenyl)-7-methyl-1H-benzo[d]imidazole (17)], for which inhibition was half-maximal at 95.6 µM (IC50).

As to `Cc1cccc2nc(-c3cc(O)ccc3O)[nH]c12` [2-(20,50-Dihydroxyphenyl)-7-methyl-1H-benzo[d]imidazole (13)], the IC50 came to 125 µM.

Regarding `Cc1cccc2nc(-c3ccncc3)[nH]c12` [7-Methyl-2-(pyridin-4'-yl)-1H-benzo[d]imidazole (24)], the IC50 amounted to 726 µM.
